Molecular target: T1, HSL (Rattus norvegicus, UniProt P15304)
T1 construct: The partially purified HSL can be stored at −70° C. for 4 to 6 weeks; from tissue; host or cells: rat epididymal fat cells (male Wistar rats)
T1 sequence (P15304 1-768 isoform P15304-2): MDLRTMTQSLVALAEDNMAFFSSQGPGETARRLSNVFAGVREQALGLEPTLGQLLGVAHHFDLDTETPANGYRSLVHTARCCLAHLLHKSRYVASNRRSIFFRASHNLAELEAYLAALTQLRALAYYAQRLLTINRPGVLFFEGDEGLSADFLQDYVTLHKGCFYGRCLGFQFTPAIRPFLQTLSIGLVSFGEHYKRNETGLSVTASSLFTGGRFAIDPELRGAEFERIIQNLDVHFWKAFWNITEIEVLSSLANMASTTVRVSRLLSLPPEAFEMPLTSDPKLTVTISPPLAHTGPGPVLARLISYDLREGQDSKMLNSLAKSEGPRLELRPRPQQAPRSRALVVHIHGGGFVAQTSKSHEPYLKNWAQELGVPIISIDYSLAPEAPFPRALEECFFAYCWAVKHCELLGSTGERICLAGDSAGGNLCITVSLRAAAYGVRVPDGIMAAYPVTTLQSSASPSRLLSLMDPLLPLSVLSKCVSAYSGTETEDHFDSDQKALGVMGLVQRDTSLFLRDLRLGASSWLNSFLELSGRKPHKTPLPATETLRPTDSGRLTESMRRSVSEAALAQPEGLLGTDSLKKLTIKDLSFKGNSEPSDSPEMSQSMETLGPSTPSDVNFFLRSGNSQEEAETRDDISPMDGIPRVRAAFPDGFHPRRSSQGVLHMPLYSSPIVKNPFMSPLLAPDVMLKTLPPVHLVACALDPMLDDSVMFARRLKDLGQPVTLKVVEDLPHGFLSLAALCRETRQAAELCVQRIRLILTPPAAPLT
Test: Indirect NAG assay (extinction increase at 481 nm)
Assay type: biochemical
Procedure: A typical reaction is carried out at 30° C. for 60 min, for example in 1.5 ml Eppendorf vessels or 96-hole plates. […] 180 μl of the substrate solution (20 μg/ml of phosphatidylcholine, 10 μg/ml of phosphatidylinositol, 50 μg/ml of NAG in assay buffer) are added. After a preincubation for 15 min at 30° C., 20 μl of HSL in assay buffer are pipetted in and the extinction is immediately measured (see above) at 481 nm in a cuvette photometer (0.5 ml cuvette) or microtiter plate reader. After a certain incubation time, which is variable and depends on the chosen enzyme concentration and can be between 2 and 240 minutes, in this case incubation at 30° C. for 60 min, the extinction is measured again. The increase in the extinction in the yellow region, in this case at 481 nm, is a measure of the enzyme activity.
Isolated rat fat cells are obtained from epididymal fatty tissue from untreated male rats (Wistar, 220-250 g) by collagenase treatment according to published processes. The fat cells from 10 rats are washed three times by flotation with 50 ml each of homogenization buffer ([…], pH 7.4, 0.25 M sucrose, 1 mM ethylenediamine-N,N,N′,N′-tetraacetic acid (EDTA), 1 mM dithiothreitol (DTT), 10 μg/ml of leupeptin, 10 μg/ml of antipain, 20 μg/ml of pepstatin) and finally taken up in 10 ml of homogenization buffer. The fat cells are homogenized in a Teflon-in-glass homogenizer (Braun-Melsungen) by 10 strokes at 1500 rpm and 15° C. The homogenizate is centrifuged (Sorvall SM24 tubes, 5000 rpm, 10 min, 4° C.). The […] between the overlying fatty layer and the pellet is removed and the centrifugation is repeated. The […] resulting from this is centrifuged again (Sorvall SM24 tubes, 20,000 rpm, 45 min, 4° C.). […] After incubation for 60 min at 4° C. (shake at intervals of 15 min), the batch is centrifuged (Sorvall SM24 tubes, 3000 rpm, 10 min, 4° C.). The supernatant is brought to pH 5.2 by addition of glacial acetic acid and incubated at 4° C. for 30 min. […] The suspension is dialyzed overnight at 4° C. against 25 mM TRIS/HCl, pH 7.4, 50% glycerol, 1 mM DTT, and 10 μg/ml of leupeptin, pepstatin, and antipain and then applied to a hydroxylapatite column (0.1 g per 1 ml of suspension, equilibrated with 10 mM potassium phosphate, pH 7.0, 30% glycerol, 1 mM DTT). The column is washed with four volumes of equilibration buffer at a flow rate of 20 to 30 ml/h. The HSL is eluted with a volume of equilibration buffer which contains 0.5 M potassium phosphate, then dialyzed (see above) and concentrated 5 to 10 times by ultrafiltration (Amicon Diaflo PM 10 filter) at 4° C. The partially purified HSL can be stored at −70° C. for 4 to 6 weeks.
6 mg of phosphatidylcholine and 6 mg of phosphatidylinositol are dissolved in 1 ml of chloroform each. 10 mg of NAG are dissolved in 1 ml of chloroform. […] The chloroform (225 μl total volume) is completely removed by overblowing with a stream of N2. The dried substrate can be stored at 4° C. for up to three days. For the preparation of the phospholipid vesicles/micelles having intercalated NAG (on the test day), the dried substrate is taken up in 20 ml of assay buffer (25 mM TRIS/HCl, pH 7.4; 150 mM NaCl) and two ultrasonic treatments with an ultrasonic probe (Branson Sonifier type 11, standard microtip): 1st treatment setting 2, 2×1 min, in between in each case 1 min on ice; 2nd treatment setting 4, 2×1 min, in between in each case 1 min on ice. […] Before use as a substrate (within the next 2 h), the solution is additionally incubated on ice for 15 min.
The assay is carried out at 30° C. for 60 min in 1.5 ml Eppendorf vessels or 96-hole plates.

[1] = HSL 40 μg, 60 min, NAG 0.05 mg/ml
[2] = HSL 60 μg, 60 min, NAG 0.05 mg/ml
[3] = HSL 80 μg, 60 min, NAG 0.05 mg/ml

O=C(CCCCCCCCCCCNc1ccc([N+](=O)[O-])c2nonc12)OCC(O)CO (centres unmarked) [Compound (3)]
Increase in the absorption at 481 nm (HSL 40 μg, 20 min, NAG 0.05 mg/ml): 477 ± 182 arb. units | Increase in the absorption at 481 nm (HSL 40 μg, 30 min, NAG 0.05 mg/ml): 2249 ± 286 arb. units | Increase in the absorption at 481 nm (HSL 40 μg, 45 min, NAG 0.05 mg/ml): 2968 ± 321 arb. units | Absorption change, Decrease, 550 nm [1]: 91 ± 19 arb. units | Absorption change, Increase, 481 nm [1]: 4623 ± 511 arb. units | Increase in the absorption at 481 nm [1]: 4065 ± 399 arb. units | Increase in the absorption at 481 nm (HSL 40 μg, 75 min, NAG 0.05 mg/ml): 4834 ± 462 arb. units | Increase in the absorption at 481 nm (HSL 40 μg, 90 min, NAG 0.05 mg/ml): 5472 ± 813 arb. units | Increase in the absorption at 481 nm (HSL 40 μg, 120 min, NAG 0.05 mg/ml): 5702 ± 531 arb. units | Increase in the absorption at 481 nm (HSL 40 μg, 180 min, NAG 0.05 mg/ml): 5961 ± 560 arb. units | Absorption change, Decrease, 550 nm [2]: 62 ± 17 arb. units | Absorption change, Increase, 481 nm [2]: 5466 ± 602 arb. units | Absorption change, Decrease, 550 nm [3]: 54 ± 15 arb. units | Absorption change, Increase, 481 nm [3]: 5913 ± 485 arb. units | Activity relative to HSL (HSL, conditions optimized for HSL): 100% | Increase in the absorption at 481 nm (NAG 0.002 mg/ml, HSL 5 μg, 60 min): 61 ± 9 arb. units | Increase in the absorption at 481 nm (NAG 0.002 mg/ml, HSL 20 μg, 60 min): 194 ± 23 arb. units | Increase in the absorption at 481 nm (NAG 0.002 mg/ml, HSL 40 μg, 60 min): 525 ± 77 arb. units | Increase in the absorption at 481 nm (NAG 0.005 mg/ml, HSL 5 μg, 60 min): 109 ± 17 arb. units | Increase in the absorption at 481 nm (NAG 0.005 mg/ml, HSL 20 μg, 60 min): 342 ± 58 arb. units | Increase in the absorption at 481 nm (NAG 0.005 mg/ml, HSL 40 μg, 60 min): 1420 ± 122 arb. units | Increase in the absorption at 481 nm (NAG 0.01 mg/ml, HSL 5 μg, 60 min): 227 ± 31 arb. units | Increase in the absorption at 481 nm (NAG 0.01 mg/ml, HSL 20 μg, 60 min): 852 ± 77 arb. units | Increase in the absorption at 481 nm (NAG 0.01 mg/ml, HSL 40 μg, 60 min): 2745 ± 264 arb. units | Increase in the absorption at 481 nm (NAG 0.02 mg/ml, HSL 5 μg, 60 min): 388 ± 45 arb. units | Increase in the absorption at 481 nm (NAG 0.02 mg/ml, HSL 20 μg, 60 min): 1758 ± 195 arb. units | Increase in the absorption at 481 nm (NAG 0.02 mg/ml, HSL 40 μg, 60 min): 6705 ± 532 arb. units | Increase in the absorption at 481 nm (NAG 0.05 mg/ml, HSL 5 μg, 60 min): 705 ± 61 arb. units | Increase in the absorption at 481 nm (NAG 0.05 mg/ml, HSL 20 μg, 60 min): 3002 ± 409 arb. units | Increase in the absorption at 481 nm (NAG 0.05 mg/ml, HSL 40 μg, 60 min): 11547 ± 912 arb. units | Increase in the absorption at 481 nm (NAG 0.075 mg/ml, HSL 5 μg, 60 min): 1121 ± 107 arb. units | Increase in the absorption at 481 nm (NAG 0.075 mg/ml, HSL 20 μg, 60 min): 768 ± 502 arb. units
